Test results as given in the supplement of paper PMC10883282.
± gives the standard deviation of the averaged measurements.

Experiments:
Experiment in all cases: relative viability vs DMSO control (72 h) (fraction); higher = more viable cells
G401 = tested on: G401
Procedure, shortened: (§1)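 ATPLite readings, expressed as percent growth and averaged over up to triplicate wells, provided relative viability. Before reading, sarcoma cell lines seeded in 384-well plates to reach 80–90% confluence received 2.5 µl of serially diluted compound after 24 h, from source plates of 10 mM to 0.0002 mM. Plates were held 72 h at 37 °C, 5% CO2, with 0.1% DMSO as vehicle and a 5 µM positive control. The data were rescaled to 1 for full and 0 for none.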

A204 = tested on: A204
Procedure, shortened: as §1

SW1353 = tested on: SW1353
Procedure, shortened: as §1

SK-ES-1 = tested on: SK-ES-1
Procedure, shortened: as §1

HT1080 = tested on: HT1080
Procedure, shortened: as §1

SW684 = tested on: SW684
Procedure, shortened: as §1

SW982 = tested on: SW982
Procedure, shortened: as §1

SW872 = tested on: SW872
Procedure, shortened: as §1

RD-ES = tested on: RD-ES
Procedure, shortened: as §1

KHOS-240S = tested on: KHOS-240S
Procedure, shortened: as §1

KHOS-NP = tested on: KHOS-NP
Procedure, shortened: as §1

SYO-1 = tested on: SYO-1
Procedure, shortened: as §1

COc1cc2ncnc(Nc3ccc(F)c(Cl)c3)c2cc1OCCCN1CCOCC1 [Gefitinib]
Details | relative viability
A204, 0.00017 µM | 1.06 ± 0.027
A204, 0.00051 µM | 1.08 ± 0.029
A204, 0.00152 µM | 1.09 ± 0.037
A204, 0.00457 µM | 1.06 ± 0.017
A204, 0.01372 µM | 1.05 ± 0.021
A204, 0.04115 µM | 1.1 ± 0.067
A204, 0.1235 µM | 1.1 ± 0.091
A204, 0.3704 µM | 1.03 ± 0.034
A204, 1.111 µM | 1.04 ± 0.1
A204, 3.333 µM | 0.876 ± 0.075
A204, 10 µM | 0.448 ± 0.04
G401, 0.00017 µM | 1.01 ± 0.045
G401, 0.00051 µM | 1 ± 0.041
G401, 0.00152 µM | 0.9788 ± 0.0043
G401, 0.00457 µM | 0.987 ± 0.0073
G401, 0.01372 µM | 1 ± 0.027
G401, 0.04115 µM | 0.996 ± 0.035
G401, 0.1235 µM | 1 ± 0.026
G401, 0.3704 µM | 0.993 ± 0.016
G401, 1.111 µM | 0.984 ± 0.032
G401, 3.333 µM | 0.835 ± 0.049
G401, 10 µM | 0.582 ± 0.017
HT1080, 0.00017 µM | 1.05 ± 0.033
HT1080, 0.00051 µM | 1.1 ± 0.024
HT1080, 0.00152 µM | 1.04 ± 0.045
HT1080, 0.00457 µM | 1.07 ± 0.017
HT1080, 0.01372 µM | 1.06 ± 0.039
HT1080, 0.04115 µM | 1.03 ± 0.046
HT1080, 0.1235 µM | 1.047 ± 0.0077
HT1080, 0.3704 µM | 1.07 ± 0.039
HT1080, 1.111 µM | 1.05 ± 0.061
HT1080, 3.333 µM | 1.04 ± 0.023
HT1080, 10 µM | 0.483 ± 0.064
KHOS-240S, 0.00017 µM | 1.01 ± 0.049
KHOS-240S, 0.00051 µM | 1.05 ± 0.037
KHOS-240S, 0.00152 µM | 1.01 ± 0.031
KHOS-240S, 0.00457 µM | 1.05 ± 0.019
KHOS-240S, 0.01372 µM | 1.03 ± 0.014
KHOS-240S, 0.04115 µM | 1.04 ± 0.049
KHOS-240S, 0.1235 µM | 1 ± 0.035
KHOS-240S, 0.3704 µM | 1.03 ± 0.041
KHOS-240S, 1.111 µM | 1.01 ± 0.041
KHOS-240S, 3.333 µM | 0.921 ± 0.048
KHOS-240S, 10 µM | 0.318 ± 0.015
KHOS-NP, 0.00017 µM | 1.09 ± 0.018
KHOS-NP, 0.00051 µM | 1.08 ± 0.028
KHOS-NP, 0.00152 µM | 1.08 ± 0.042
KHOS-NP, 0.00457 µM | 1.08 ± 0.034
KHOS-NP, 0.01372 µM | 1.096 ± 0.01
KHOS-NP, 0.04115 µM | 1.07 ± 0.019
KHOS-NP, 0.1235 µM | 1.06 ± 0.038
KHOS-NP, 0.3704 µM | 1.06 ± 0.015
KHOS-NP, 1.111 µM | 1.08 ± 0.018
KHOS-NP, 3.333 µM | 1.08 ± 0.033
KHOS-NP, 10 µM | 0.898 ± 0.036
RD-ES, 0.00017 µM | 0.944 ± 0.059
RD-ES, 0.00051 µM | 0.967 ± 0.041
RD-ES, 0.00152 µM | 0.954 ± 0.036
RD-ES, 0.00457 µM | 0.965 ± 0.04
RD-ES, 0.01372 µM | 0.97 ± 0.018
RD-ES, 0.04115 µM | 0.978 ± 0.04
RD-ES, 0.1235 µM | 0.973 ± 0.042
RD-ES, 0.3704 µM | 0.987 ± 0.051
RD-ES, 1.111 µM | 0.962 ± 0.032
RD-ES, 3.333 µM | 0.844 ± 0.017
RD-ES, 10 µM | 0.464 ± 0.013
SK-ES-1, 0.00017 µM | 0.989 ± 0.028
SK-ES-1, 0.00051 µM | 0.988 ± 0.021
SK-ES-1, 0.00152 µM | 1 ± 0.035
SK-ES-1, 0.00457 µM | 1.01 ± 0.017
SK-ES-1, 0.01372 µM | 0.9857 ± 0.0053
SK-ES-1, 0.04115 µM | 1 ± 0.035
SK-ES-1, 0.1235 µM | 1.01 ± 0.019
SK-ES-1, 0.3704 µM | 0.958 ± 0.053
SK-ES-1, 1.111 µM | 0.864 ± 0.011
SK-ES-1, 3.333 µM | 0.599 ± 0.043
SK-ES-1, 10 µM | 0.168 ± 0.0081
SW684, 0.00017 µM | 1.09 ± 0.093
SW684, 0.00051 µM | 1.16 ± 0.015
SW684, 0.00152 µM | 1.09 ± 0.037
SW684, 0.00457 µM | 1.17 ± 0.096
SW684, 0.01372 µM | 1.1 ± 0.03
SW684, 0.04115 µM | 1.15 ± 0.077
SW684, 0.1235 µM | 1.07 ± 0.099
SW684, 0.3704 µM | 1.16 ± 0.013
SW684, 1.111 µM | 1.1 ± 0.034
SW684, 3.333 µM | 1.15 ± 0.033
SW684, 10 µM | 0.424 ± 0.029
SW872, 0.00017 µM | 1 ± 0.014
SW872, 0.00051 µM | 1.02 ± 0.016
SW872, 0.00152 µM | 1.05 ± 0.047
SW872, 0.00457 µM | 1.026 ± 0.01
SW872, 0.01372 µM | 1.03 ± 0.031
SW872, 0.04115 µM | 1.02 ± 0.019
SW872, 0.1235 µM | 1.03 ± 0.05
SW872, 0.3704 µM | 1.04 ± 0.021
SW872, 1.111 µM | 1.01 ± 0.05
SW872, 3.333 µM | 0.868 ± 0.074
SW872, 10 µM | 0.476 ± 0.027
SW982, 0.00017 µM | 0.997 ± 0.017
SW982, 0.00051 µM | 1.01 ± 0.011
SW982, 0.00152 µM | 1.01 ± 0.02
SW982, 0.00457 µM | 1 ± 0.016
SW982, 0.01372 µM | 1 ± 0.022
SW982, 0.04115 µM | 1.012 ± 0.0099
SW982, 0.1235 µM | 0.998 ± 0.022
SW982, 0.3704 µM | 0.989 ± 0.01
SW982, 1.111 µM | 0.957 ± 0.03
SW982, 3.333 µM | 0.675 ± 0.015
SW982, 10 µM | 0.268 ± 0.018
SW1353, 0.00017 µM | 1.03 ± 0.016
SW1353, 0.00051 µM | 1.073 ± 0.0017
SW1353, 0.00152 µM | 0.999 ± 0.068
SW1353, 0.00457 µM | 1.02 ± 0.058
SW1353, 0.01372 µM | 1.02 ± 0.038
SW1353, 0.04115 µM | 0.979 ± 0.013
SW1353, 0.1235 µM | 0.93 ± 0.034
SW1353, 0.3704 µM | 0.903 ± 0.0098
SW1353, 1.111 µM | 0.928 ± 0.037
SW1353, 3.333 µM | 0.892 ± 0.042
SW1353, 10 µM | 0.168 ± 0.013
SYO-1, 0.00017 µM | 1.01 ± 0.018
SYO-1, 0.00051 µM | 1.02 ± 0.041
SYO-1, 0.00152 µM | 0.999 ± 0.023
SYO-1, 0.00457 µM | 0.998 ± 0.021
SYO-1, 0.01372 µM | 0.999 ± 0.015
SYO-1, 0.04115 µM | 0.9815 ± 0.0094
SYO-1, 0.1235 µM | 1 ± 0.012
SYO-1, 0.3704 µM | 0.983 ± 0.028
SYO-1, 1.111 µM | 0.955 ± 0.011
SYO-1, 3.333 µM | 0.829 ± 0.011
SYO-1, 10 µM | 0.104 ± 0.031
